What follows are molecules tested on native tau aggregates (assay: TAU radioligand in vitro displacement assay ([3H]T808 autoradiography on human AD brain sections)). Details: compound 10 nM, radioligand [3H]T808 10 nM, 50 mM Tris pH 7.4, room temperature, 30 min.
Format: binding
In short: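 Human AD brain cryosections (10 μm) co-incubated with [3H]T808 (10 nM) and test compound at various concentrations in 50 mM Tris pH 7.4, 30 min at room temperature, then washed at 4° C. Autoradiography after 5-day plate exposure. % displacement from ROI specific binding, white-matter signal subtracted as non-specific; cold T808 internal control.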
`FCCCOc1ccc(-c2cn3ccc(N4CCC4)nc3n2)cc1` [Example 112, 7-(Azetidin-1-yl)-2-(4-(3-fluoropropoxy)phenyl)imidazo[1,2-a]pyrimidine] was tested, and the “% displacement of [3H]T808 (10 nM) at 10 nM” value (“% displacement of [3H]T808” below) was 15%. For `COc1cccc(-c2cn3ccc(N4CCC4)nc3n2)c1` [Example 113, 7-(Azetidin-1-yl)-2-(3-methoxyphenyl)imidazo[1,2-a]pyrimidine], the “% displacement of [3H]T808” value was 36%. In the case of `CNc1ccn2cc(-c3cccc(CO)c3)nc2n1` [Example 114, [3-[7-(Methylamino)imidazo[1,2-a]pyrimidin-2-yl]phenyl]methanol acetic acid adduct], the “% displacement of [3H]T808” value is reported as 11%. In the case of `FCCOc1cccc(-c2cn3ccc(N4CCC4)nc3n2)c1` [Example 115, 7-(Azetidin-1-yl)-2-(3-(2-fluoroethoxy)phenyl)imidazo[1,2-a]pyrimidine], the “% displacement of [3H]T808” value is reported as 5%. `COc1ccc(-c2cn3ccc(N(CCF)C4CC4)nc3n2)cc1` [Example 116, N-Cyclopropyl-N-(2-fluoroethyl)-2-(4-methoxyphenyl)imidazo[1,2-a]pyrimidin-7-amine] was tested, and the “% displacement of [3H]T808” value was 9%. In the case of `CNc1ccn2cc(-c3cccc(OC)c3)nc2n1` [Example 117, 2-(3-Methoxyphenyl)-N-methylimidazo[1,2-a]pyrimidin-7-amine], the “% displacement of [3H]T808” value is reported as 40%. `FCOc1cccc(-c2cn3ccc(N4CCC4)nc3n2)c1` [Example 118, 7-(Azetidin-1-yl)-2-(3-(fluoromethoxy)phenyl)imidazo[1,2-a]pyrimidine] was tested, and the “% displacement of [3H]T808” value was 23%. For `Fc1ccc(-c2cn3ccc(N4CCC4)nc3n2)cc1` [Example 119, 7-(Azetidin-1-yl)-2-(4-fluorophenyl)imidazo[1,2-a]pyrimidine], the “% displacement of [3H]T808” value was 22%. `Fc1cccc(-c2cn3ccc(N4CCC4)nc3n2)c1` [Example 120, 7-(Azetidin-1-yl)-2-(3-fluorophenyl)imidazo[1,2-a]pyrimidine] was tested, and the “% displacement of [3H]T808” value was 22%. `COc1cc(OC)cc(-c2cn3ccc(N4CCC4)nc3n2)c1` [Example 121, 7-(Azetidin-1-yl)-2-(3,5-dimethoxyphenyl)imidazo[1,2-a]pyrimidine] was tested, and the “% displacement of [3H]T808” value was 5%. `CNc1ccn2cc(-c3ccc(O)cc3)nc2n1` [Example 122, 4-(7-(Methylamino)imidazo[1,2-a]pyrimidin-2-yl)phenol] was tested, and the “% displacement of [3H]T808” value was 32%. For `CNc1ccn2cc(-c3ccc(OCCF)cc3)nc2n1` [Example 123, 2-(4-(2-Fluoroethoxy)phenyl)-N-methylimidazo[1,2-a]pyrimidin-7-amine], the “% displacement of [3H]T808” value was 43%. With `CNc1ccn2cc(-c3ccc(OCCCF)cc3)nc2n1` [Example 124, 2-(4-(3-Fluoropropoxy)phenyl)-N-methylimidazo[1,2-a]pyrimidin-7-amine] the “% displacement of [3H]T808” value was 40%. In the case of `CNc1ccn2cc(-c3cccc(O)c3)nc2n1` [Example 125, 3-(7-(Methylamino)imidazo[1,2-a]pyrimidin-2-yl)phenol], the “% displacement of [3H]T808” value is reported as 16%. For `CSc1cccc(-c2cn3ccc(N4CCC4)nc3n2)c1` [Example 126, 7-(Azetidin-1-yl)-2-(3-(methylthio)phenyl)imidazo[1,2-a]pyrimidine], the “% displacement of [3H]T808” value was 15%. `COc1cc(-c2cn3ccc(N4CCC4)nc3n2)ccc1C` [Example 127, 7-(Azetidin-1-yl)-2-(3-methoxy-4-methylphenyl)imidazo[1,2-a]pyrimidine] was tested, and the “% displacement of [3H]T808” value was 11%. In the case of `COc1ccc(-c2cn3ccc(N4CCC4)nc3n2)cc1OC` [Example 128, 7-(Azetidin-1-yl)-2-(3,4-dimethoxyphenyl)imidazo[1,2-a]pyrimidine], the “% displacement of [3H]T808” value is reported as 15%. For `CNc1ccn2cc(-c3cccc(OCCF)c3)nc2n1` [Example 129, 2-(3-(2-Fluoroethoxy)phenyl)-N-methylimidazo[1,2-a]pyrimidin-7-amine], the “% displacement of [3H]T808” value was 16%. For `CNc1ccn2cc(-c3cccc(OCCCF)c3)nc2n1` [Example 130, 2-(3-(3-Fluoropropoxy)phenyl)-N-methylimidazo[1,2-a]pyrimidin-7-amine], the “% displacement of [3H]T808” value was 12%. `CNc1ccn2cc(-c3cccc(OCF)c3)nc2n1` [Example 131, 2-(3-(Fluoromethoxy)phenyl)-N-methylimidazo[1,2-a]pyrimidin-7-amine] was tested, and the “% displacement of [3H]T808” value was 33%. For `CNc1ccn2cc(-c3ccc(OCF)cc3)nc2n1` [Example 132, 2-(4-(Fluoromethoxy)phenyl)-N-methylimidazo[1,2-a]pyrimidin-7-amine], the “% displacement of [3H]T808” value was 36%. `Oc1cccc(-c2cn3ccc(NC4CC4)nc3n2)c1` [Example 133, 3-(7-(Cyclopropylamino)imidazo[1,2-a]pyrimidin-2-yl)phenol] was tested, and the “% displacement of [3H]T808” value was 14%. For `FCCOc1cccc(-c2cn3ccc(NC4CC4)nc3n2)c1` [Example 134, N-Cyclopropyl-2-(3-(2-fluoroethoxy)phenyl)imidazo[1,2-a]pyrimidin-7-amine], the “% displacement of [3H]T808” value was 6%. With `CN(C)c1ccn2cc(-c3ccc(CO)cc3)nc2n1` [Example 135, [4-[7-(Dimethylamino)imidazo[1,2-a]pyrimidin-2-yl]phenyl]methanol acetic acid adduct] the “% displacement of [3H]T808” value was 18%. With `CNc1ccn2cc(-c3ccc(C(=O)OC)cc3)nc2n1` [Example 136, Methyl 4-[7-(methylamino)imidazo[1,2-a]pyrimidin-2-yl]benzoate] the “% displacement of [3H]T808” value was 27%. With `FCOc1cccc(-c2cn3ccc(NC4CC4)nc3n2)c1` [Example 137, N-Cyclopropyl-2-(3-(fluoromethoxy)phenyl)imidazo[1,2-a]pyrimidin-7-amine] the “% displacement of [3H]T808” value was 18%. With `FCCOc1ccc(-c2cn3ccc(NC4CC4)nc3n2)cc1` [Example 138, N-Cyclopropyl-2-(4-(2-fluoroethoxy)phenyl)imidazo[1,2-a]pyrimidin-7-amine] the “% displacement of [3H]T808” value was 20%. With `FCCCOc1ccc(-c2cn3ccc(NC4CC4)nc3n2)cc1` [Example 139, N-Cyclopropyl-2-(4-(3-fluoropropoxy)phenyl)imidazo[1,2-a]pyrimidin-7-amine] the “% displacement of [3H]T808” value was 22%. With `FCOc1ccc(-c2cn3ccc(NC4CC4)nc3n2)cc1` [Example 140, N-Cyclopropyl-2-(4-(fluoromethoxy)phenyl)imidazo[1,2-a]pyrimidin-7-amine] the “% displacement of [3H]T808” value was 11%. `CNc1ccn2cc(-c3ccc(SC)cc3)nc2n1` [Example 141, N-Methyl-2-(4-(methylthio)phenyl)imidazo[1,2-a]pyrimidin-7-amine] was tested, and the “% displacement of [3H]T808” value was 34%. For `CNc1ccn2cc(-c3ccc(OC)c(OC)c3)nc2n1` [Example 142, 2-(3,4-Dimethoxyphenyl)-N-methylimidazo[1,2-a]pyrimidin-7-amine], the “% displacement of [3H]T808” value was 21%. In the case of `CNc1ccn2cc(-c3ccc(C)c(OC)c3)nc2n1` [Example 143, 2-(3-Methoxy-4-methylphenyl)-N-methylimidazo[1,2-a]pyrimidin-7-amine], the “% displacement of [3H]T808” value is reported as 21%. For `CNc1ccn2cc(-c3cc(OC)cc(OC)c3)nc2n1` [Example 144, 2-(3,5-Dimethoxyphenyl)-N-methylimidazo[1,2-a]pyrimidin-7-amine], the “% displacement of [3H]T808” value was 14%.

— patent publication US9801961B2, “2-phenylimidazo[1,2-a]pyrimidines as imaging agents” (Hoffmann-La Roche Inc., priority 2013, dated 2017)
